{"source": "patent US8198303B2", "about": "“Methods of use and compositions for the diagnosis and treatment of infectious diseases” (Sequella, Inc., priority 2002, dated 2012)", "origin": "cited, not measured here", "system": "M. tuberculosis", "conditions": "background statement on ethambutol"}
{"smiles": "CC[C@@H](CO)NCCN[C@@H](CC)CO", "note": "[ethambutol, Ethambutol]", "values": [{"measurement": "Minimum Inhibition Concentration (MIC)", "value": "about 5 μg/ml"}]}
